Target: T1, wild-type p53 protein (Mus musculus, UniProt P02340)
T1 construct: administered intraperitoneally to C57BL/6J wild-type mice; from tissue; host or cells: C57BL/6J wild-type mice: liver, kidneys, spleen, heart
Test: Degradation of wild-type p53 protein in each tissue of mouse after administration, Western blot analysis
Format: in vivo
Protocol: TIBC-CANDDY_MLN was dissolved in DMSO immediately before administration, and then dissolved in corn oil (Code No. 25606-55, Nacalai Tesque) so that the concentration of DMSO was 10 vol %, and then a dose of 50 mg/kg body weight or 100 mg/kg body weight was administered intraperitoneally to C57BL/6J wild-type mice (7 to 8 weeks old, male) (CLEA Japan, Inc.) (n=3). As a control, an injection carrier (corn oil containing 10 vol % DMSO) was used. The mice were kept under an environment of ad libitum access to food and water. The mice were dissected under deep anesthesia by Somnopentyl (Kyoritsu Seiyaku Corporation) 48 hours after administration. Abdominal section was performed, and then the liver, kidneys, spleen, and heart were sequentially extracted and flash frozen in liquid nitrogen. Each tissue frozen in liquid nitrogen was stored in a deep freezer at −80° C.
The frozen tissues (spleen: 0.02 g, other tissues: 0.04 g) were each frozen and triturated, and then 1×TKM tissue lysis buffer (50 mM triethanolamine (pH 7.8), 50 mM KCl, 5 mM MgCl2, 0.25 M sucrose, 1 mM PMSF, protein inhibitors cocktail-EDTA free (Code No. 03969-21, Nacalai Tesque), 1 mM DTT, and 5 μL/mL recombinant RNase inhibitor (40 U/μL, Cat No. 2313A, Lot No. K8402DA, TAKARA Bio)) were added in an amount of 490 μL for the spleen and 980 μL for the others, and dissolved by rotation for 15 minutes (1 rpm, 25° C.). Then, the resultant product was subjected to centrifugation (at 3000 rpm×15 minutes, 4° C.), and the supernatants (each tissue extract) was collected. The concentration of proteins in each tissue extract was quantified with a spectrophotometer using each tissue extract that had been diluted 20 times using DEPC-treated water.
Each tissue extract collected was subjected to Western blot analysis. An SDS-PAGE gel was prepared using TGX™ FastCast™ Acrylamide Kit, 12% (Bio-Rad). Electrophoresis samples were prepared in a 6×SDS-PAGE sample buffer (62.5 mM Tris-HCl pH 6.8, 2% SDS, 5% 2-mercaptoethanol, 10% glycerol, 0.25% BPB), and placed on a heat block at 95° C. for 5 minutes. The electrophoresis samples prepared were applied at 50 μg/well for detecting GAPDH, and at 100 μg/well for other detection. Electrophoresis was performed at 160 V for 60 minutes (electrophoresis buffer; 195 mM glycine, 25 mM Tris).
After electrophoresis, proteins were transferred to a PVDF membrane (Immobion™-P, Millipore) under conditions of 100 V and 1.5 hours using a tank-type blotting device and a transfer buffer (25 mM Tris-HCl, 195 mM glycine, 0.01% SDS, 15% methanol). The membrane was split into two at the position of a 25 kDa marker. The membrane after transfer was shaken and blocked in 5% skim milk/TBS-T (100 mM Tris-HCl, 150 mM NaCl, 0.1% Tween-20, pH 7.6) at room temperature for 30 minutes. After blocking, a primary antibody reaction was performed in 5% skim milk/TBS-T. As the primary antibody, an anti-p53 antibody (MAB1355, R&D Systems, Inc., diluted 500 times), an anti-MDM2 antibody (sc-965, SantaCruz, diluted 500 times), and an anti-GAPDH antibody (sc-32233, SantaCruz, diluted 20000 times) were used. The membrane was shaken at room temperature for 60 minutes, and then the membrane was washed with TBS-T for 5 minutes. […] Subsequently, the membrane was treated with a chemiluminescence reagent Immobilon™ Western (Millipore), and then chemiluminescence was detected using a lumino image analyzer LAS-3000 (FUJIFILM Corporation). Detected bands were quantified with an image processing software ImageJ (NIH).

T1 sequence (P02340 whole entry): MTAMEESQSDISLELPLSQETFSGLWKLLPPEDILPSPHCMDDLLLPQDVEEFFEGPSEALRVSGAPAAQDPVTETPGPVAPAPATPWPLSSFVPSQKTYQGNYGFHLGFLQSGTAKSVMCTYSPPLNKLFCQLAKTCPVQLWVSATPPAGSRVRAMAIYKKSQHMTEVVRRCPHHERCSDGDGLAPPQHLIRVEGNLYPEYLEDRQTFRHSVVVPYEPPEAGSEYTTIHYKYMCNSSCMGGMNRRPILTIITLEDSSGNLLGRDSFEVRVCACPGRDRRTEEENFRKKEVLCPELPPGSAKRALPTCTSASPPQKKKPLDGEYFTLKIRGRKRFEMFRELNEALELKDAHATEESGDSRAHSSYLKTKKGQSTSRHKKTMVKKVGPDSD

For `CC(C)C[C@H](NC(=O)CNC(=O)c1cc(Cl)ccc1Cl)C(=O)NCCCCCCC(=O)Nc1ccc(C(=O)/C=C/c2ccc(I)cc2)cc1` [TIBC-CANDDY_MLN], the “amount of wild-type p53 protein in heart” value (intraperitoneal 50 or 100 mg/kg body weight, 48 hours after administration, heart) was “reduced in a concentration dependent manner”, the “amount of wild-type p53 protein in kidneys” value (intraperitoneal 50 or 100 mg/kg body weight, 48 hours after administration, kidneys) was “reduction of the target was not found” and the “amount of wild-type p53 protein in spleen” value (intraperitoneal 50 or 100 mg/kg body weight, 48 hours after administration, spleen) was “reduced in a concentration dependent manner”. The “amount of wild-type p53 protein in liver” value (intraperitoneal, only at a dose of 100 mg/kg body weight, 48 hours after administration, liver) was “reduced slightly” and the “transfer property to tissues (molecular kinetics)” value (suggested from p53 and MDM2 degradation in tissues) was “showed a higher transfer property to the heart, liver, and spleen as compared with the kidneys”.
